{
  "source": "paper PMC8537277",
  "about": "(Pharmaceuticals, 2021)",
  "origin": "cited, not measured here",
  "biological_target": "HA receptor-binding site (RBS)",
  "parameters": "method as in PMID 29610325",
  "conditions": "ref [20]; cited from earlier work",
  "data": [
    {"smiles": "CC(=O)N[C@H]1[C@H]([C@H](O)[C@H](O)CO)OC(O)(C(=O)O)C[C@@H]1O", "note": "(stereo partly shown) [sialic acid]", "values": [
      {"measurement": "KD", "result": "mM range"}
    ]}
  ]
}
